Experimental data from US5571836A, “Viral attachment inhibitors” (priority 1995, dated 1996).
Where a name gives a salt, the structure may show the parent alone.

What was measured:
[1] = tested on: influenza virus USSR/2/85; test: Fetuin binding inhibition assay, influenza virus USSR/2/85; details: for A^i (absorbance): 492 nm
[2] = tested on: influenza virus B/USSR/100/83; test: Fetuin binding inhibition assay, influenza virus B/USSR/100/83; details: for A^i (absorbance): 492 nm
[3] = tested on: influenza virus USSR/90/77; test: Fetuin binding inhibition assay, influenza virus USSR/90/77; details: for A^i (absorbance): 492 nm
[4] = tested on: influenza viruses; test: Fetuin binding inhibition assay, influenza virus strains overall
[5] = tested on: influenza virus B/Singapore/222/79; test: Fetuin binding inhibition assay, influenza virus B/Singapore/222/79; details: for A^i (absorbance): 492 nm
[6] = tested on: influenza virus England/321/77; test: Fetuin binding inhibition assay, influenza virus England/321/77; details: for A^i (absorbance): 492 nm
[7] = tested on: influenza virus Victoria/3/75; test: Fetuin binding inhibition assay, influenza virus Victoria/3/75; details: for A^i (absorbance): 492 nm
[8] = tested on: influenza virus Texas/1/77; test: Fetuin binding inhibition assay, influenza virus Texas/1/77; details: for A^i (absorbance): 492 nm
[9] = type: physicochemical; details: control solutions without enzyme
Description: Compound (IV) was incubated at 37° C. with Vibrio cholerae neuraminidase (450 U/ml) in 0.1M acetate buffer, pH 5.6, containing 0.9% NaCi and 0.1% CaCl2. Neuraminidase cleavage was determined on aliquots taken at intervals by TLC analysis (Merck silica gel plates in propanol/ethanol/25% aqueous ammonia, 2:2:1). Spots were developed by charring the plates with 3% H3 PO4 at 150° C. and quantitated densitometrically. The results are depicted in The FIGURE (v).

[10] = tested on: influenza virus USSR/3/85; test: Fetuin binding inhibition assay, influenza virus USSR/3/85; details: for A^i (absorbance): 492 nm
[11] = tested on: influenza virus Philippines/2/82; test: Fetuin binding inhibition assay, influenza virus Philippines/2/82; details: for A^i (absorbance): 492 nm
[12] = tested on: influenza virus X-31; test: Fetuin binding inhibition assay, influenza virus X-31; details: for A^i (absorbance): 492 nm
[13] = tested on: influenza virus B/Hong Kong/8/73; test: Fetuin binding inhibition assay, influenza virus B/Hong Kong/8/73; details: for A^i (absorbance): 492 nm
[14] = tested on: influenza virus Port Chalmers/1/73; test: Fetuin binding inhibition assay, influenza virus Port Chalmers/1/73; details: for A^i (absorbance): 492 nm
[15] = tested on: influenza virus Chile/1/83; test: Fetuin binding inhibition assay, influenza virus Chile/1/83; details: for A^i (absorbance): 492 nm
[16] = tested on: influenza virus Taiwan/1/86; test: Fetuin binding inhibition assay, influenza virus Taiwan/1/86; details: for A^i (absorbance): 492 nm

CC(=S)NC1C(O)CC(OCc2ccccc2)(C(=O)O)OC1C(O)C(O)CO [IV, benzyl 3,5-dideoxy5-thioacetamido-α-D-glycero-D-galacto-nonulopyranosidonicacid (sodium salt)]
-lgKd(i) ([1]; 1.28 mM sialoside): 2.6
A^i (absorbance) ([1]; 1.28 mM sialoside): 0.23
-lgKd(i) ([1]; 2.56 mM sialoside): 2.5
A^i (absorbance) ([1]; 2.56 mM sialoside): 0.21
-lgKd(i) ([1]; .64 mM sialoside): 2.6
A^i (absorbance) ([1]; .64 mM sialoside): 0.28
-lgKd ± SD ([1]; mean over concentrations): 2.6 ± 0.06
-lgKd(i) ([2]; 1.28 mM sialoside): 3.7
A^i (absorbance) ([2]; 1.28 mM sialoside): 0.15
-lgKd(i) ([2]; 2.56 mM sialoside): 3.7
A^i (absorbance) ([2]; 2.56 mM sialoside): 0.08
-lgKd(i) ([2]; .16 mM sialoside): 3.3
A^i (absorbance) ([2]; .16 mM sialoside): 0.52
-lgKd(i) ([2]; .32 mM sialoside): 3.5
A^i (absorbance) ([2]; .32 mM sialoside): 0.40
-lgKd(i) ([2]; .64 mM sialoside): 3.7
A^i (absorbance) ([2]; .64 mM sialoside): 0.25
-lgKd ± SD ([2]; mean over concentrations): 3.6 ± 0.2
-lgKd(i) ([3]; 1.28 mM sialoside): 3.2
A^i (absorbance) ([3]; 1.28 mM sialoside): 0.41
-lgKd(i) ([3]; 2.56 mM sialoside): 3.2
A^i (absorbance) ([3]; 2.56 mM sialoside): 0.23
-lgKd(i) ([3]; .08 mM sialoside): 3.1
A^i (absorbance) ([3]; .08 mM sialoside): 0.94
-lgKd(i) ([3]; .16 mM sialoside): 3.2
A^i (absorbance) ([3]; .16 mM sialoside): 0.84
-lgKd(i) ([3]; .32 mM sialoside): 3.2
A^i (absorbance) ([3]; .32 mM sialoside): 0.73
-lgKd(i) ([3]; .64 mM sialoside): 3.2
A^i (absorbance) ([3]; .64 mM sialoside): 0.6
-lgKd ± SD ([3]; mean over concentrations): 3.1 ± 0.09
Inhibition of virus strains [4]: inhibits some virus strains better than its analog
-lgKd(i) ([5]; 1.28 mM sialoside): 3.6
A^i (absorbance) ([5]; 1.28 mM sialoside): 0.18
-lgKd(i) ([5]; 2.56 mM sialoside): 3.7
A^i (absorbance) ([5]; 2.56 mM sialoside): 0.09
-lgKd(i) ([5]; .32 mM sialoside): 3.2
A^i (absorbance) ([5]; .32 mM sialoside): 0.56
-lgKd(i) ([5]; .64 mM sialoside): 3.5
A^i (absorbance) ([5]; .64 mM sialoside): 0.35
-lgKd ± SD ([5]; mean over concentrations): 3.5 ± 0.2
-lgKd(i) ([6]; 1.28 mM sialoside): 3.7
A^i (absorbance) ([6]; 1.28 mM sialoside): 0.21
-lgKd(i) ([6]; 2.56 mM sialoside): 3.5
A^i (absorbance) ([6]; 2.56 mM sialoside): 0.16
-lgKd(i) ([6]; .08 mM sialoside): 3.4
A^i (absorbance) ([6]; .08 mM sialoside): 0.98
-lgKd(i) ([6]; .16 mM sialoside): 3.7
A^i (absorbance) ([6]; .16 mM sialoside): 0.73
-lgKd(i) ([6]; .32 mM sialoside): 3.7
A^i (absorbance) ([6]; .32 mM sialoside): 0.56
-lgKd(i) ([6]; .64 mM sialoside): 3.7
A^i (absorbance) ([6]; .64 mM sialoside): 0.37
-lgKd ± SD ([6]; mean over concentrations): 3.6 ± 0.13
-lgKd(i) ([7]; 1.60 mM sialoside): 3.3
A^i (absorbance) ([7]; 1.60 mM sialoside): 0.35
-lgKd(i) ([7]; .05 mM sialoside): 3.3
A^i (absorbance) ([7]; .05 mM sialoside): 0.71
-lgKd(i) ([7]; .10 mM sialoside): 3.3
A^i (absorbance) ([7]; .10 mM sialoside): 0.69
-lgKd(i) ([7]; .20 mM sialoside): 3.5
A^i (absorbance) ([7]; .20 mM sialoside): 0.61
-lgKd(i) ([7]; .40 mM sialoside): 3.4
A^i (absorbance) ([7]; .40 mM sialoside): 0.56
-lgKd(i) ([7]; .80 mM sialoside): 3.4
A^i (absorbance) ([7]; .80 mM sialoside): 0.46
-lgKd ± SD ([7]; mean over concentrations): 3.4 ± 0.08
-lgKd(i) ([8]; 1.60 mM sialoside): 4.0
A^i (absorbance) ([8]; 1.60 mM sialoside): 0.35
-lgKd(i) ([8]; .05 mM sialoside): 3.8
A^i (absorbance) ([8]; .05 mM sialoside): 1.0
-lgKd(i) ([8]; .10 mM sialoside): 4.1
A^i (absorbance) ([8]; .10 mM sialoside): 0.9
-lgKd(i) ([8]; .20 mM sialoside): 4.0
A^i (absorbance) ([8]; .20 mM sialoside): 0.83
-lgKd(i) ([8]; .40 mM sialoside): 4.0
A^i (absorbance) ([8]; .40 mM sialoside): 0.70
-lgKd(i) ([8]; .80 mM sialoside): 3.9
A^i (absorbance) ([8]; .80 mM sialoside): 0.55
-lgKd ± SD ([8]; mean over concentrations): 4.0 ± 0.1
Stability in the absence of enzyme [9]: at least 23 hours
-lgKd(i) ([10]; 1.28 mM sialoside): 3.6
A^i (absorbance) ([10]; 1.28 mM sialoside): 0.32
-lgKd(i) ([10]; 2.56 mM sialoside): 3.8
A^i (absorbance) ([10]; 2.56 mM sialoside): 0.12
-lgKd(i) ([10]; .08 mM sialoside): 3.8
A^i (absorbance) ([10]; .08 mM sialoside): 1.05
-lgKd(i) ([10]; .16 mM sialoside): 3.8
A^i (absorbance) ([10]; .16 mM sialoside): 0.81
-lgKd(i) ([10]; .32 mM sialoside): 3.8
A^i (absorbance) ([10]; .32 mM sialoside): 0.62
-lgKd(i) ([10]; .64 mM sialoside): 3.7
A^i (absorbance) ([10]; .64 mM sialoside): 0.43
-lgKd ± SD ([10]; mean over concentrations): 3.8 ± 0.08
-lgKd(i) ([11]; 1.60 mM sialoside): 4.1
A^i (absorbance) ([11]; 1.60 mM sialoside): 0.20
-lgKd(i) ([11]; .05 mM sialoside): 4.0
A^i (absorbance) ([11]; .05 mM sialoside): 0.75
-lgKd(i) ([11]; .10 mM sialoside): 4.4
A^i (absorbance) ([11]; .10 mM sialoside): 0.59
-lgKd(i) ([11]; .20 mM sialoside): 4.1
A^i (absorbance) ([11]; .20 mM sialoside): 0.56
-lgKd(i) ([11]; .40 mM sialoside): 4.1
A^i (absorbance) ([11]; .40 mM sialoside): 0.43
-lgKd(i) ([11]; .80 mM sialoside): 4.1
A^i (absorbance) ([11]; .80 mM sialoside): 0.32
-lgKd ± SD ([11]; mean over concentrations): 4.1
-lgKd(i) ([12]; 1.28 mM sialoside): 3.3
A^i (absorbance) ([12]; 1.28 mM sialoside): 0.34
-lgKd(i) ([12]; 2.56 mM sialoside): 3.2
A^i (absorbance) ([12]; 2.56 mM sialoside): 0.24
-lgKd(i) ([12]; .08 mM sialoside): 3.2
A^i (absorbance) ([12]; .08 mM sialoside): 0.86
-lgKd(i) ([12]; .16 mM sialoside): 3.4
A^i (absorbance) ([12]; .16 mM sialoside): 0.72
-lgKd(i) ([12]; .32 mM sialoside): 3.3
A^i (absorbance) ([12]; .32 mM sialoside): 0.65
-lgKd(i) ([12]; .64 mM sialoside): 3.3
A^i (absorbance) ([12]; .64 mM sialoside): 0.51
-lgKd ± SD ([12]; mean over concentrations): 3.3 ± 0.08
-lgKd(i) ([13]; 1.28 mM sialoside): 2.6
A^i (absorbance) ([13]; 1.28 mM sialoside): 0.46
-lgKd(i) ([13]; 2.56 mM sialoside): 2.7
A^i (absorbance) ([13]; 2.56 mM sialoside): 0.32
-lgKd(i) ([13]; .64 mM sialoside): 2.5
A^i (absorbance) ([13]; .64 mM sialoside): 0.54
-lgKd ± SD ([13]; mean over concentrations): 2.6 ± 0.1
-lgKd(i) ([14]; 1.60 mM sialoside): 3.2
A^i (absorbance) ([14]; 1.60 mM sialoside): 0.25
-lgKd(i) ([14]; .05 mM sialoside): 3.2
A^i (absorbance) ([14]; .05 mM sialoside): 0.55
-lgKd(i) ([14]; .10 mM sialoside): 3.4
A^i (absorbance) ([14]; .10 mM sialoside): 0.51
-lgKd(i) ([14]; .20 mM sialoside): 3.4
A^i (absorbance) ([14]; .20 mM sialoside): 0.47
-lgKd(i) ([14]; .40 mM sialoside): 3.3
A^i (absorbance) ([14]; .40 mM sialoside): 0.42
-lgKd(i) ([14]; .80 mM sialoside): 3.1
A^i (absorbance) ([14]; .80 mM sialoside): 0.40
-lgKd ± SD ([14]; mean over concentrations): 3.3 ± 0.1
-lgKd(i) ([15]; 1.28 mM sialoside): 3.6
A^i (absorbance) ([15]; 1.28 mM sialoside): 0.36
-lgKd(i) ([15]; 2.56 mM sialoside): 3.5
A^i (absorbance) ([15]; 2.56 mM sialoside): 0.25
-lgKd(i) ([15]; .08 mM sialoside): 3.5
A^i (absorbance) ([15]; .08 mM sialoside): 1.27
-lgKd(i) ([15]; .16 mM sialoside): 3.5
A^i (absorbance) ([15]; .16 mM sialoside): 1.14
-lgKd(i) ([15]; .32 mM sialoside): 3.5
A^i (absorbance) ([15]; .32 mM sialoside): 0.89
-lgKd(i) ([15]; .64 mM sialoside): 3.5
A^i (absorbance) ([15]; .64 mM sialoside): 0.63
-lgKd ± SD ([15]; mean over concentrations): 3.5 ± 0.04
-lgKd(i) ([16]; 1.28 mM sialoside): 3.2
A^i (absorbance) ([16]; 1.28 mM sialoside): 0.33
-lgKd(i) ([16]; 2.56 mM sialoside): 3.2
A^i (absorbance) ([16]; 2.56 mM sialoside): 0.21
-lgKd(i) ([16]; .08 mM sialoside): 3.3
A^i (absorbance) ([16]; .08 mM sialoside): 0.68
-lgKd(i) ([16]; .16 mM sialoside): 3.3
A^i (absorbance) ([16]; .16 mM sialoside): 0.62
-lgKd(i) ([16]; .32 mM sialoside): 3.2
A^i (absorbance) ([16]; .32 mM sialoside): 0.55
-lgKd(i) ([16]; .64 mM sialoside): 3.1
A^i (absorbance) ([16]; .64 mM sialoside): 0.47
-lgKd ± SD ([16]; mean over concentrations): 3.2 ± 0.08
